Results from PubChem BioAssay (NCI).
Where “and” joins values, the source holds several entries; their conditions need not be identical. Identical values can stand only once.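 Results reflect a 48-hour exposure of cells in 96-well plates to compound at five concentrations. GI50 marks 50% less growth. The concentration for full growth arrest is given as TGI.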

Assays:
Assay in all cases: NCI anticancer screen, dose series, 48 h
DLD-1 colon = test system: DLD-1 colon
DMS 273 small cell lung = test system: DMS 273 small cell lung
SNB-78 CNS = test system: SNB-78 CNS
LXFL 529 NSCLC = test system: LXFL 529 NSCLC
XF 498 CNS = test system: XF 498 CNS
PC-3 prostate = test system: PC-3 prostate
NCI/ADR-RES ovarian = test system: NCI/ADR-RES ovarian
DU-145 prostate = test system: DU-145 prostate

Compound	GI50 (DLD-1 colon)	TGI (DLD-1 colon) [µM]	GI50 (DMS 273 small cell lung) [µM]	TGI (DMS 273 small cell lung) [µM]	GI50 (SNB-78 CNS) [µM]	TGI (SNB-78 CNS) [µM]	GI50 (LXFL 529 NSCLC) [µM]	TGI (LXFL 529 NSCLC) [µM]	TGI (XF 498 CNS) [µM]	TGI (PC-3 prostate) [µM]	TGI (NCI/ADR-RES ovarian) [µM]	TGI (DU-145 prostate) [µM]
C[CH2][Sn]1([CH2]C)[O]C(=O)[O][Sn]([CH2]C)([CH2]C)[O]1	25.6 µM	> 57.8	59.4	> 100	17.1	37.4	8.78	21.7	–	–	–	–
Cc1nc2ccc(C(F)(F)F)cc2nc1Nc1ccc(Cl)c(Cl)c1	–	–	–	16.1	–	34.4	–	20.6	22.2	–	–	–
CC(=O)OCC1OC(n2c(-c3ccccc3)cc(-c3ccco3)c(C#N)c2=O)C(OC(C)=O)C(OC(C)=O)C1OC(C)=O (stereo not drawn)	> 53.1 µM and 25.8 µM	> 100	–	> 100	–	> 100	–	> 100	43.7	–	–	–
CC(=O)NC(CCCCNC(=O)OCc1ccccc1)C(=O)NCc1ccccc1 (stereo not drawn)	–	> 100	–	> 100	–	> 100	–	> 100	> 100	–	–	–
O=C(Nc1ccccc1)c1ccc(Cl)c([N+](=O)[O-])c1	–	> 100	–	14.2	–	83.9	–	18.5	43.4	–	–	–
CCC(=O)c1cn(C)c(=O)c2ccccc12	–	> 100	–	> 100	–	> 100	–	> 100	> 100	–	–	–
Nc1ccc(C(=O)N/C(=C\C=C\c2ccco2)c2nc3[nH]c(=S)[nH]c(=O)c3[nH]2)cc1	–	> 100	–	> 100	–	> 100	–	> 100	> 100	–	–	–
CC1CC(c2ccccc2)=Nc2ccccc2S1(=O)=O (stereo not drawn)	–	28.4	–	38.3	–	30.8	–	28.6	32.7	–	–	–
CCN(CC)c1ccc(N=Nc2ccc(-c3nc4cccnc4o3)cc2)cc1	–	> 100	–	> 100	–	> 100	–	> 100	> 100	–	–	–
CCCC(=O)c1c(NOC2OC(COC(C)=O)C(OC(C)=O)C(OC(C)=O)C2OC(C)=O)nc(OC)n(C)c1=O (stereo not drawn)	–	> 100	–	> 100	–	> 100	–	> 100	> 100	–	–	–
COc1ccc(-c2c(C3=NCCN3)nnn2-c2ccccc2)cc1	–	> 100	–	> 100	–	> 100	–	> 100	> 100	–	–	–
C=CCc1cc2cccc(OC)c2oc1=O	–	> 100	–	> 100	–	> 100	–	> 100	53.5	–	–	–
CCCCC#COP(=O)(OCC)OCC	–	> 100	–	–	–	> 100	–	> 100	–	–	–	–
CCN(CC)CCC1CC/C(=C\c2ccc(OC)cc2)C1=O (stereo not drawn)	–	> 100	–	> 100	–	> 100	–	> 100	> 100	–	–	–
O=C(C(O)c1cn(Cc2ccccc2)c2ccccc12)N1CCCCC1 (stereo not drawn)	–	> 100	–	> 100	–	> 10	–	> 100	> 100	–	–	–
CCN(CC)CCn1c2c3ccccc3ccc2c2oc(=O)c3ccccc3c21	–	> 100	–	–	–	> 100	–	> 100	> 100	–	–	–
COP1(=O)CC2C(Cl)(Cl)C2(C)C1 (stereo not drawn)	–	> 100	–	> 100	–	> 100	–	> 100	> 100	–	–	–
N#CC(C#N)=C(N)/C(C#N)=C\c1ccnc2ccccc12	–	27.5	–	40.5	–	> 100	–	54.3	69.7	–	–	–
Cc1cc2c(CC(=O)O)[nH]nc2c(C(=O)O)c1C	–	> 100	–	> 100	–	> 100	–	> 100	> 100	–	–	–
Cc1cc2nc3c(=O)n(C)c(=O)nc-3n(-c3ccc(Cl)cc3)c2cc1C	–	42.1	–	20.6	–	45.9	–	27.5	7.14	–	–	–
Cc1cc2nc3c(C(OC4OC(CO)C(O)C(O)C4O)C(O)CO)nn(-c4ccccc4)c3nc2cc1C (stereo not drawn)	–	> 100	–	–	–	> 100	–	–	> 100	–	–	–
CC1=C2C(O)C(C(C)CO)C(O)CC2(C)C(O)CC1 (stereo not drawn)	–	> 100	–	> 100	–	> 100	–	> 100	–	–	–	–
Cc1nc(N)sc1C(=O)/C=C/c1ccc(/C=C/C(=O)c2sc(NC(=O)CCCCCCCCC(=O)Nc3nc(C)c(C(=O)/C=C/c4ccc(/C=C/C(=O)c5sc(N)nc5C)cc4)s3)nc2C)cc1	–	> 100	–	> 100	–	> 100	–	> 100	> 100	–	–	–
COC1=CC23C=CC1[C@@H](c1ccccc1)C2=C(C)C(=O)N3C(=O)NC1CCCCC1 (stereo partly drawn)	–	–	–	–	–	70.1	–	–	–	–	–	–
C=CCNC(=S)N1CC(C)C(=O)Nc2ccccc21 (stereo not drawn)	–	–	–	> 100	–	> 100	–	> 100	> 100	–	–	–
CC1(C)C(=O)N(c2ccccc2)C(=O)N1c1nc2ccccc2[nH]1	–	> 100	–	> 100	–	> 100	–	> 100	> 100	–	–	–
O=C1C=C(c2c(O)ccc3ccccc23)c2ccccc2C1=O	–	16.4	–	11.3	–	8.64	–	2.96	–	4.2	8.96	24
N#CCCc1nc2ccc(Br)cc2c(=O)n1CCO	–	> 100	–	–	–	> 100	–	> 100	> 100	–	–	–
COc1ccc(NC(=O)C2C(=O)N(c3ccc(OC)cc3)C(=O)/C2=N/O)cc1 (stereo not drawn)	–	> 100	–	> 81.1	–	> 100	–	> 75	18.7	–	–	–
NC(N)=N/N=C(/c1nc2ccc([N+](=O)[O-])cc2[nH]c1=O)C(O)c1ccco1 (stereo not drawn)	–	> 100	–	> 100	–	> 100	–	> 100	> 100	–	–	–
